According to patent EP2921486B1, “Compositions and methods for treating beta-amyloid related diseases” (American Life Science Pharmaceuticals, Inc., priority 2009, dated 2011):
Like-named read-outs stand apart in the source and are kept apart here.

Assays:
brain BACE1 = assay: Brain BACE1 activity after once-a-day oral gavage (fluorometric kit); type: in vivo; conditions: guinea pigs, once-a-day oral administration
From the text: (§1) Guinea Pigs. Guinea Pigs (Harley strain, average weight 400 g corresponding to animals about 6 weeks old) were obtained from Charles River (Wilmington, MA). The animals were given free access to standard chow and water before and during the experiment.
(§2) Gavage Formulation: Delivering a drug by gavage offers the advantage of accurate dosing but is traumatic and thus only suitable for relatively short dosing periods. Gavage delivery was used for the guinea pig work. E64d was resuspended in DMSO at indicated concentrations (see Figures, and below) and guinea pigs were gavaged daily using a feeding tube. Vehicle control animals were provided DMSO alone.
(§3) Guinea Pig Gavage Dosing: Guinea pigs were gavaged daily for one week. Guinea pigs were lightly anesthetized with isoflurane prior to gavaging. 250 µl of compound solution was gavaged daily per animal and animals were sacrificed 4 hrs after the last dosing.
The brain BRACE1 activity in guinea pigs was measured by Beta secretase activity was determined using a fluorometric assay kit from Abcam (ab65357) as described by the manufacturer.

transgenic APPlon mice = assay: Morris water maze test, spatial memory deficit; type: in vivo; conditions: E64d-doped chow for 1 month or 3 months, either age group
From the text: Figure 16 is not descriptive of the claimed invention. Figure 16 graphically illustrates data showing the effects of AB-007 (E64d, loxistatin)-doped chow on the spatial memory deficit that develops in transgenic APPlon (London APP) mice, see above description, and e.g. Hook, et al. (2008) supra. The Morris water maze test was used to measure the latency period, which is the time it takes an animal to swim to a submerged and not visible platform after having been previously trained as to the location of that platform. The longer the latency period, the poorer the spatial memory. Two groups of animals were evaluated, young and old mice.

[1] = 5-week stability test at 60°C; type: physicochemical; conditions: read-out: compound remaining
brain Aβ(40) and Aβ(42) = conditions: for Summary Aβ 40 Mean % Control / Summary Aβ 42 Mean % Control: 1 & 3 month feeding; for Aβ 40 Difference / Aβ 42 Difference: control minus treated; for Aβ 40 % Control / Aβ 42 % Control: per cent reduction in Aβ
[2] = cited from earlier work
[3] = high oral doses (500 mg/kg and 1 g/kg), cited from earlier work
[4] = oral, dogs; cited from earlier work
[5] = rats, cited from earlier work
brain cathepsin B = assay: Brain cathepsin B activity after once-a-day oral gavage (fluorometric kit); type: in vivo; conditions: guinea pigs, once-a-day oral administration
From the text: as §1, §2, §3
The brain cathepsin B activity in guinea pigs was measured as follows: Cathepsin B activity was determined using a fluorometric assay kit from Abeam, Inc. (catalog ab65300; Cambridge, MA) as described by the manufacturer.

Aβ(40) and Aβ(42) = assay: Brain, CSF and plasma Aβ ELISA after once-a-day oral gavage for one week (Example 9); type: in vivo; conditions: guinea pigs
From the text: as §1, §2, §3

[6] = system: brain Aβ40 and brain Aβ42; conditions: guinea pig, oral 10 mg/kg/day, 7 days
[7] = cited from earlier work; remark: listed apart in the source
[8] = maximal intravenous or oral doses, rats; cited from earlier work
[9] = healthy human volunteers, oral, about 5 mg/kg/day, single or continuous 1 week; cited from earlier work
[10] = Old mice, 1 month feeding E64d doped chow
[11] = Old mice, 3 month feeding E64d doped chow
[12] = Young mice, 1 month feeding E64d doped chow
[13] = Young mice, 3 month feeding E64d doped chow

CCOC(=O)[C@H]1O[C@@H]1C(=O)N[C@@H](CC(C)C)C(=O)NCCC(C)C (relative stereo) [AB-007, (2S,3S)-trans-epoxysuccinyl-L-leucyl-amido-3-methylbutane ethyl ester]
brain BACE1 activity (brain BACE1): increase | mean latency period relative to age-matched controls (transgenic APPlon mice): significantly reduced | remaining at 840 h [1]: 99% | Summary Aβ 40 Mean % Control (brain Aβ(40) and Aβ(42); All Ages): 64% | Summary Aβ 42 Mean % Control (brain Aβ(40) and Aβ(42); All Ages): 52% | Summary Aβ 40 Mean % Control (brain Aβ(40) and Aβ(42); Old mice): 65% | Summary Aβ 42 Mean % Control (brain Aβ(40) and Aβ(42); Old mice): 42% | Aβ 40 Mean treated (brain Aβ(40) and Aβ(42); [10]): 87.1 | Aβ 42 Mean treated (brain Aβ(40) and Aβ(42); [10]): 31.9 | Aβ 40 Difference (brain Aβ(40) and Aβ(42); Old mice, 1 month feeding): 142.9 | Aβ 42 Difference (brain Aβ(40) and Aβ(42); Old mice, 1 month feeding): 26.6 | Aβ 40 % Control (brain Aβ(40) and Aβ(42); Old mice, 1 month feeding): 62% | Aβ 42 % Control (brain Aβ(40) and Aβ(42); Old mice, 1 month feeding): 45% | Aβ 40 Mean treated (brain Aβ(40) and Aβ(42); [11]): 91.2 | Aβ 42 Mean treated (brain Aβ(40) and Aβ(42); [11]): 61.3 | Aβ 40 Difference (brain Aβ(40) and Aβ(42); Old mice, 3 month feeding): 195.3 | Aβ 42 Difference (brain Aβ(40) and Aβ(42); Old mice, 3 month feeding): 38.5 | Aβ 40 % Control (brain Aβ(40) and Aβ(42); Old mice, 3 month feeding): 68% | Aβ 42 % Control (brain Aβ(40) and Aβ(42); Old mice, 3 month feeding): 39% | Summary Aβ 40 Mean % Control (brain Aβ(40) and Aβ(42); Young mice): 60% | Summary Aβ 42 Mean % Control (brain Aβ(40) and Aβ(42); Young mice): 62% | Aβ 40 Mean treated (brain Aβ(40) and Aβ(42); [12]): 47.7 | Aβ 42 Mean treated (brain Aβ(40) and Aβ(42); [12]): 5.5 | Aβ 40 Difference (brain Aβ(40) and Aβ(42); Young mice, 1 month feeding): 47.5 | Aβ 42 Difference (brain Aβ(40) and Aβ(42); Young mice, 1 month feeding): 6 | Aβ 40 % Control (brain Aβ(40) and Aβ(42); Young mice, 1 month feeding): 50% | Aβ 42 % Control (brain Aβ(40) and Aβ(42); Young mice, 1 month feeding): 52% | Aβ 40 Mean treated (brain Aβ(40) and Aβ(42); [13]): 38.7 | Aβ 42 Mean treated (brain Aβ(40) and Aβ(42); [13]): 4.5 | Aβ 40 Difference (brain Aβ(40) and Aβ(42); Young mice, 3 month feeding): 87.4 | Aβ 42 Difference (brain Aβ(40) and Aβ(42); Young mice, 3 month feeding): 11.7 | Aβ 40 % Control (brain Aβ(40) and Aβ(42); Young mice, 3 month feeding): 69% | Aβ 42 % Control (brain Aβ(40) and Aβ(42); Young mice, 3 month feeding): 72% | drug accumulation ([2]; humans): No drug accumulation | total urinary excretion rate ([2]; humans): about 30% | conversion in the gut to E64c (loxistatin acid) ([2]; oral): rapidly and completely converted | effect on the cardiovascular system [3]: no effect | effect on the central nervous system ([3]; sedation, mild inhibition of pentetrazol-induced seizure): depress the central nervous system | LD50 [4]: > 5,000 mg/kg | LD50 ([5]; oral): over 10,000 mg/kg | hepatic injury ([5]; does not occur in other species): hepatic injury seen in rats | brain cathepsin B activity (brain cathepsin B): dose response reduction | CSF Aβ (Aβ(40) and Aβ(42)): dose response reduction | CSF Aβ(42) (Aβ(40) and Aβ(42)): dose response reduction | brain Aβ(40) (Aβ(40) and Aβ(42)): dose response reduction | brain Aβ(42) (Aβ(40) and Aβ(42)): dose response reduction | plasma Aβ(40) (Aβ(40) and Aβ(42)): dose response reduction | plasma Aβ(42) (Aβ(40) and Aβ(42)): dose response reduction | reduction of brain Aβ40 relative to vehicle treated controls [6]: 42% | reduction of brain Aβ42 relative to vehicle treated controls [6]: 42% | oral dose absorbed ([7]; primary absorption site small intestine): about 60% | concentration in all other organs, including the brain ([7]; radioactive AB-007): corresponding to the plasma concentration or concentrations lower than plasma | kidneys concentration relative to plasma concentration ([7]; radioactive AB-007): ~12 times | liver concentration relative to plasma concentration ([7]; radioactive AB-007): about 25 times | time of maximum tissue concentration after administration ([7]; radioactive AB-007): 0.5 h | influence on vision or hearing [8]: do not influence | hematological tests, blood chemistry, urinalyses [9]: no changes | pulse, blood pressure, body temperature, grip force, electrocardiogram, physician observations [9]: no change

[2H]C([2H])([2H])C([2H])(CCNC(=O)[C@H](CC(C)C)NC(=O)[C@H]1O[C@@H]1C(=O)OCC)C([2H])([2H])[2H] [Compound E64d7]
brain BACE1 activity (brain BACE1): increase | brain cathepsin B activity (brain cathepsin B): dose response reduction | CSF Aβ (Aβ(40) and Aβ(42)): dose response reduction | CSF Aβ(42) (Aβ(40) and Aβ(42)): dose response reduction | brain Aβ(40) (Aβ(40) and Aβ(42)): dose response reduction | brain Aβ(42) (Aβ(40) and Aβ(42)): dose response reduction | plasma Aβ(40) (Aβ(40) and Aβ(42)): dose response reduction | plasma Aβ(42) (Aβ(40) and Aβ(42)): dose response reduction
